Reference: patent US8133911B2, “(R)-4-(heteroaryl) phenylethyl derivatives and pharmaceutical compositions containing them” (Dompe S.p.A, priority 2007, dated 2012)

Test system: PMNs C5a induced chemotaxis
Assay: Inhibition of C5a-induced chemotaxis of human PMNs
Assay type: cell-based
Conditions: 1 h; compound 10^−8 M; human PMNs; C5a 10^−9 M; 60 min at 37° C.; read-out: C5a (% inhibition at 10^−8 M)
Protocol: The compounds prepared in Example 2 were evaluated in vitro for their ability to inhibit chemotaxis of polymorphonucleate leukocytes (hereinafter referred to as PMNs) and monocytes induced by the fractions of the complement C5a and C5a-desArg. For this purpose, to isolate the PMNs from heparinized human blood, taken from healthy adult volunteers, mononucleates were removed by means of sedimentation on dextran (according to the procedure disclosed by W. J. Ming et al., J. Immunol., 138, 1469, 1987) and red blood cells by a hypotonic solution. The cell vitality was calculated by exclusion with Trypan blue, whilst the ratio of the circulating polymorphonucleates was estimated on the cytocentrifugate after staining with Diff Quick.
Human recombinant fractions C5a and C5a-desArg (Sigma) were used as stimulating agents in the chemotaxis experiments, giving practically identical results.
The lyophilized C5a was dissolved in a volume of HBSS containing 0.2% bovin serum albumin BSA so thus to obtain a stock solution having a concentration of 10^−5 M to be diluted in HBSS to a concentration of 10^−9 M, for the chemotaxis assays.
In the chemotaxis experiments, the PMNs were incubated with the compounds of the invention of formula (I) for 15′ at 37° C. in an atmosphere containing 5% CO2. The chemotactic activity of the C5a was evaluated on human circulating polymorphonucleates (PMNs) resuspended in HBSS at a concentration of 1.5×10^6 PMNs per ml. During the chemotaxis assay (according to W. Falket et al., J. Immunol. Methods, 33, 239, 1980) PVP-free filters with a porosity of 5 μm and microchambers suitable for replication were used.
The compounds of Example 2 were evaluated at a concentration ranging between 10^−7 and 10^−10 M; for this purpose they were added, at the same concentration, both to the lower pores and the upper pores of the microchamber. The wells in the lower part contain the solution of C5a or the simple carrier, those in the upper part contain the suspension of PMNs.
Inhibition of C5a-induced chemotactic activity by the individual compounds was evaluated by incubating the microchamber for the chemotaxis for 60 min at 37° C. in an atmosphere containing 5% CO2.

Point of comparison: C[C@H](c1ccc(Nc2nc(C(F)(F)F)cs2)cc1)c1cc(O)ns1 [Compound 12, 5-[(1R)-1-(4-{[4-(trifluoromethyl)-1,3-thiazol-2-yl]amino}phenyl)ethyl]isothiazol-3-ol], inhibition at 0.01 µM 45 ± 3%. Against it:
- C[C@H](c1ccc(Nc2nc(C(F)(F)F)cs2)cc1)c1nnn[nH]1 [Compound 1, N-{4-[(1R)-1-(1H-tetrazol-5-yl)ethyl]phenyl}-4-(trifluoromethyl)-1,3-thiazol-2-amine] — higher, 60 ± 1%
- Cc1csc(Nc2ccc([C@@H](C)c3nnn[nH]3)cc2)n1 [Compound 2, 4-methyl-N-{4-[(1R)-1-(1H-tetrazol-5-yl)ethyl]phenyl}-1,3-thiazol-2-amine] — the same, 45 ± 3%
- C[C@H](c1ccc(Nc2nc(C(C)(C)C)cs2)cc1)c1nnn[nH]1 [Compound 3, 4-tert-butyl-N-{4-[(1R)-1-(1H-tetrazol-5-yl)ethyl]phenyl}-1,3-thiazol-2-amine] — within error, 42 ± 8%
- C[C@H](c1ccc(Nc2nccs2)cc1)c1nnn[nH]1 [Compound 4, N-{4-[(1R)-1-(1H-tetrazol-5-yl)ethyl]phenyl}-1,3-thiazol-2-amine] — within error, 39 ± 3%
- C[C@H](c1ccc(Nc2nc(C(F)(F)F)co2)cc1)c1nnn[nH]1 [Compound 5, N-{4-[(1R)-1-(1H-tetrazol-5-yl)ethyl]phenyl}-4-(trifluoromethyl)-1,3-oxazol-2-amine] — higher, 55 ± 1%
- Cc1coc(Nc2ccc([C@@H](C)c3nnn[nH]3)cc2)n1 [Compound 6, 4-methyl-N-{4-[(1R)-1-(1H-tetrazol-5-yl)ethyl]phenyl}-1,3-oxazol-2-amine] — within error, 51 ± 7%
- C[C@H](c1ccc(Nc2nc(C(F)(F)F)cs2)cc1)c1ccnn1O [Compound 7, 5-[(1R)-1-(4-{[4-(trifluoromethyl)-1,3-thiazol-2-yl]amino}phenyl)ethyl]-1H-pyrazol-1-ol] — within error, 38 ± 6%
- Cc1cnn(O)c1[C@H](C)c1ccc(Nc2nc(C(F)(F)F)cs2)cc1 [Compound 8, 4-methyl-5-[(1R)-1-(4-{[4-(trifluoromethyl)-1,3-thiazol-2-yl]amino}phenyl)ethyl]-1H-pyrazol-1-ol] — within error, 48 ± 5%
- C[C@H](c1ccc(Nc2nc(C(F)(F)F)cs2)cc1)c1cnnn1O [Compound 9, 5-[(1R)-1-(4-{[4-(trifluoromethyl)-1,3-thiazol-2-yl]amino}phenyl)ethyl]-1H-1,2,3-triazol-1-ol] — within error, 44 ± 1%
- C[C@H](c1ccc(Nc2nc(C(F)(F)F)cs2)cc1)c1cc(O)no1 [Compound 10, 5-[(1R)-1-(4-{[4-(trifluoromethyl)-1,3-thiazol-2-yl]amino}phenyl)ethyl]isoxazol-3-ol] — higher, 56 ± 1%
- C[C@H](c1ccc(Nc2nc(C(F)(F)F)cs2)cc1)c1nonc1O [Compound 13, 4-[(1R)-1-(4-{[4-(trifluoromethyl)-1,3-thiazol-2-yl]amino}phenyl)ethyl]-1,2,5-oxadiazol-3-ol] — within error, 51 ± 4%
- C[C@H](c1ccc(Nc2nc(C(F)(F)F)cs2)cc1)c1nsnc1O [Compound 14, 4-[(1R)-1-(4-{[4-(trifluoromethyl)-1,3-thiazol-2-yl]amino}phenyl)ethyl]-1,2,5-thiadiazol-3-ol] — higher, 60 ± 9%
- C[C@H](c1ccc(Nc2nc(C(F)(F)F)cs2)cc1)c1ncnn1O [Compound 15, 5-[(1R)-1-(4-{[4-(trifluoromethyl)-1,3-thiazol-2-yl]amino}phenyl)ethyl]-1H-1,2,4-triazol-1-ol] — within error, 43 ± 1%

Same assay, conditions: Homo sapiens, 1 h, read-out: C5a (% inhibition at 10^−8 M)

Cc1c(O)noc1[C@H](C)c1ccc(Nc2nc(C(F)(F)F)cs2)cc1 [Compound 11, 4-methyl-5-[(1R)-1-(4-{[4-(trifluoromethyl)-1,3-thiazol-2-yl]amino}phenyl)ethyl]isoxazol-3-ol] was tested, and the inhibition at 0.01 µM was 45 ± 4%.
